# Source: publication PMC2821522 (Journal of Clinical Immunology, 2009)
# Where two headings read alike, the source gives them in different places.
# Experiments:
# Type in all cases: cell-based, human
# [1] = tested on: PBMC (immune recognition, gamma interferon-secreting T cells)
# [2] = tested on: CD4+ T cells; test: Flow cytometry / intracellular cytokine staining, CD4+ T cells; details: sarcoidosis subjects, in words, Fig. 1
# [3] = tested on: expanded sarcoidosis CD4+ T cell lines; antigen presented by Sweig cells (HLA DRB1*1101 and DRB3*0202)
sequence,measurement,setting,value
WTNTPTKWDNSFLEI [katG peptide 13],subjects recognizing the peptide,[1],Seven of the eight
same,subjects recognizing the peptide,[1]; PPD− control subjects,none
same,CD4+ T cell response,[2]; listed as katG,CD4+ T cell recognition of katG was also detected
same,CD4+ T cell response,[2]; listed as katG peptide,strong CD4+ T cells response
same,immune response (CD4+ IFN-γ),[3],minimal response
same,immune response (CD4+ IFN-γ),"[3]; katG-expanded line of Sarcoidosis 6, with Sweig cells, Fig. 4, listed as katG peptides",strong CD4+ responses
